Test system: patients recruited within 30 days after a myocardial infarction
Assay: COLCOT randomized double-blind trial, efficacy end points, colchicine 0.5 mg once daily vs placebo
Assay type: in vivo, human
Method: We performed a randomized, double-blind trial involving patients recruited within 30 days after a myocardial infarction. The patients were randomly assigned to receive either low-dose colchicine (0.5 mg once daily) or placebo. A total of 4745 patients were enrolled; 2386 patients were assigned to the colchicine group, and 2379 to the placebo group. Patients were followed for a median of 22.6 months.
The primary efficacy end point was a composite of death from cardiovascular causes, resuscitated cardiac arrest, myocardial infarction (e.g., acute myocardial infraction or type II myocardial infarction), stroke, or urgent hospitalization for angina leading to coronary revascularization. The components of the primary end point and safety were also assessed.
COLCOT was an international multicenter, randomized, double-blinded trial that randomly assigned patients to receive either low-dose colchicine (0.5 mg once daily) or placebo. The study protocol and main results have been published (see, Tardif et al., N Engl J Med 2019). […] Main exclusion criteria were severe heart failure, reduced left ventricular ejection fraction (<35%), recent stroke (<3 months), type 2 MI, recent (<3 years) or planned coronary artery bypass graft (CABG), history of cancer (<3 years), and inflammatory bowel disease or chronic diarrhea. All patients enrolled in the trial benefited from percutaneous coronary intervention whenever indicated and guidelines-directed management of CV disease prior to randomization (see. Tardif et al., N Engl J Med 2019).
Clinical follow-up consisted of evaluations at 1 and 3 months after randomization and every 3 months thereafter. An independent clinical endpoint committee, blinded to trial-group assignment, adjudicated clinical endpoints. The trial was locally approved by the various institutional review boards, and all patients signed a written informed consent before enrollment.
The primary efficacy endpoint was a composite of CV death, resuscitated cardiac arrest, MI, stroke, or urgent hospitalization for angina requiring coronary revascularization. The secondary endpoints consisted of the components of the primary efficacy endpoint, all-cause death, and a composite of CV death, resuscitated cardiac arrest, MI, or stroke. Exploratory endpoints included all coronary revascularizations, including both elective and urgent coronary revascularizations.
The primary efficacy endpoint was a composite of cardiovascular death, MI, ischemic stroke, and urgent coronary revascularization. Secondary efficacy endpoints consisted of the components of the primary endpoint, composite of cardiovascular death, MI, and ischemic stroke, as well as deep vein thrombosis or pulmonary embolus, and atrial fibrillation (AF). To maximize consistency in pooling efficacy endpoints among trials, the primary and secondary composite efficacy and stroke endpoints in COLCOT were modified to meet the definition of primary and stroke endpoints of the LoDoCo2 trial. Therefore, adjudicated events of resuscitated cardiac arrest and non-ischemic stroke in COLCOT were excluded from the pooled primary endpoint. The component endpoint of stroke was also restricted to include only ischemic strokes. Incidence rates and hazards ratios (HRs) were calculated for the new primary composite endpoint and ischemic stroke endpoint using individual patient data from COLCOT.
The COLCOT trial was performed as follows. A randomized, double-blind trial involving patients recruited within 30 days after a myocardial infarction was performed. The patients were randomly assigned to receive either low-dose colchicine (0.5 mg once daily) or placebo. A total of 4745 patients were enrolled; 2386 patients were assigned to the colchicine group, and 2379 to the placebo group. […]

[1] = per-protocol population, colchicine vs placebo
[2] = subgroup History of diabetes: No
[3] = subgroup History of diabetes: Yes
[4] = subgroup History of hypertension: No
[5] = subgroup History of hypertension: Yes
[6] = subgroup Prior PCI or CABG: Yes
[7] = subgroup Prior stroke or TIA: No
[8] = subgroup Prior stroke or TIA: Yes
[9] = subgroup Smoking: Active smoker
[10] = subgroup Smoking: Previous smoker
[11] = subgroup White blood cell count: Above median
[12] = subgroup White blood cell count: Below median

Structure (SMILES): COc1cc2c(c(OC)c1OC)-c1ccc(OC)c(=O)cc1[C@@H](NC(C)=O)CC2 [Colchicine, colchicine]
- Resuscitated cardiac arrest, % of patients (per-protocol population): (0.2%)
- Resuscitated cardiac arrest, no. of patients (per-protocol population): 5 no.
- Stroke, % of patients (per-protocol population): (0.2%)
- Stroke, no. of patients (per-protocol population): 5 no.
- Urgent hospitalization for angina requiring revascularization, % of patients (per-protocol population): (1.0%)
- Urgent hospitalization for angina requiring revascularization, no. of patients (per-protocol population): 22 no.
- Primary endpoint, no. of patients (per-protocol population, N = 2260): 115 no.
- MI, Hazard Ratio (95% CI) [1]: 0.84 (0.62-1.14)
- Primary endpoint, Hazard Ratio (95% CI) [1]: 0.71 (0.56-0.90)
- Resuscitated cardiac arrest, Hazard Ratio (95% CI) [1]: 1.00 (0.29-3.46)
- Stroke, Hazard Ratio (95% CI) [1]: 0.26 (0.10-0.71)
- Urgent hospitalization for angina requiring revascularization, Hazard Ratio (95% CI) [1]: 0.47 (0.28-0.78)
- Primary efficacy composite endpoint, % of patients [2]: (4.8%)
- Primary efficacy composite endpoint, Hazard ratio (95% CI) [2]: 0.85 (0.64; 1.13)
- Primary efficacy composite endpoint, no. of patients with event/total no. of patients [2]: 91/1904
- Primary efficacy composite endpoint, % of patients [3]: (8.7%)
- Primary efficacy composite endpoint, Hazard ratio (95% CI) [3]: 0.65 (0.44; 0.96)
- Primary efficacy composite endpoint, no. of patients with event/total no. of patients [3]: 40/462
- Primary efficacy composite endpoint, % of patients [4]: (4.1%)
- Primary efficacy composite endpoint, Hazard ratio (95% CI) [4]: 0.80 (0.54; 1.17)
- Primary efficacy composite endpoint, no. of patients with event/total no. of patients [4]: 48/1181
- Primary efficacy composite endpoint, % of patients [5]: (7.0%)
- Primary efficacy composite endpoint, Hazard ratio (95% CI) [5]: 0.76 (0.57; 1.01)
- Primary efficacy composite endpoint, no. of patients with event/total no. of patients [5]: 83/1185
- Primary efficacy composite endpoint, % of patients (subgroup Prior MI: No): (4.3%)
- Primary efficacy composite endpoint, Hazard ratio (95% CI) (subgroup Prior MI: No): 0.68 (0.51; 0.89)
- Primary efficacy composite endpoint, no. of patients with event/total no. of patients (subgroup Prior MI: No): 85/1996
- Primary efficacy composite endpoint, % of patients (subgroup Prior MI: Yes): (12.4%)
- Primary efficacy composite endpoint, Hazard ratio (95% CI) (subgroup Prior MI: Yes): 1.05 (0.70; 1.58)
- Primary efficacy composite endpoint, no. of patients with event/total no. of patients (subgroup Prior MI: Yes): 46/370
- Primary efficacy composite endpoint, % of patients (subgroup Prior PCI or CABG: No): (4.3%)
- Primary efficacy composite endpoint, Hazard ratio (95% CI) (subgroup Prior PCI or CABG: No): 0.72 (0.54; 0.95)
- Primary efficacy composite endpoint, no. of patients with event/total no. of patients (subgroup Prior PCI or CABG: No): 83/1947
- Primary efficacy composite endpoint, % of patients [6]: (11.5%)
- Primary efficacy composite endpoint, Hazard ratio (95% CI) [6]: 0.91 (0.62; 1.34)
- Primary efficacy composite endpoint, no. of patients with event/total no. of patients [6]: 48/419
- Primary efficacy composite endpoint, % of patients [7]: (5.3%)
- Primary efficacy composite endpoint, Hazard ratio (95% CI) [7]: 0.76 (0.60; 0.96)
- Primary efficacy composite endpoint, no. of patients with event/total no. of patients [7]: 123/2311
- Primary efficacy composite endpoint, % of patients [8]: (14.5%)
- Primary efficacy composite endpoint, Hazard ratio (95% CI) [8]: 1.09 (0.42; 2.82)
- Primary efficacy composite endpoint, no. of patients with event/total no. of patients [8]: 8/55
- Primary efficacy composite endpoint, % of patients (subgroup Sex: Female): (7.8%)
- Primary efficacy composite endpoint, Hazard ratio (95% CI) (subgroup Sex: Female): 0.99 (0.63; 1.58)
- Primary efficacy composite endpoint, no. of patients with event/total no. of patients (subgroup Sex: Female): 37/472
- Primary efficacy composite endpoint, % of patients (subgroup Sex: Male): (5.0%)
- Primary efficacy composite endpoint, Hazard ratio (95% CI) (subgroup Sex: Male): 0.70 (0.54; 0.91)
- Primary efficacy composite endpoint, no. of patients with event/total no. of patients (subgroup Sex: Male): 94/1894
- Primary efficacy composite endpoint, % of patients [9]: (5.4%)
- Primary efficacy composite endpoint, Hazard ratio (95% CI) [9]: 0.93 (0.60; 1.44)
- Primary efficacy composite endpoint, no. of patients with event/total no. of patients [9]: 38/708
- Primary efficacy composite endpoint, % of patients (subgroup Smoking: Non-smoker): (6.0%)
- Primary efficacy composite endpoint, Hazard ratio (95% CI) (subgroup Smoking: Non-smoker): 0.90 (0.61; 1.34)
- Primary efficacy composite endpoint, no. of patients with event/total no. of patients (subgroup Smoking: Non-smoker): 47/787
- Primary efficacy composite endpoint, % of patients [10]: (5.3%)
- Primary efficacy composite endpoint, Hazard ratio (95% CI) [10]: 0.59 (0.41; 0.85)
- Primary efficacy composite endpoint, no. of patients with event/total no. of patients [10]: 46/871
- Primary efficacy composite endpoint, % of patients [11]: (5.3%)
- Primary efficacy composite endpoint, Hazard ratio (95% CI) [11]: 0.80 (0.51; 1.25)
- Primary efficacy composite endpoint, no. of patients with event/total no. of patients (subgroup White blood cell count: Above median (8.64 × 10^3/μL)): 34/637
- Primary efficacy composite endpoint, % of patients [12]: (6.2%)
- Primary efficacy composite endpoint, Hazard ratio (95% CI) [12]: 0.85 (0.56; 1.29)
- Primary efficacy composite endpoint, no. of patients with event/total no. of patients (subgroup White blood cell count: Below median (8.64 × 10^3/μL)): 41/660

Reference: patent US11400063B2, “Early administration of low-dose colchicine after myocardial infarction” (INSTITUT DE CARDIOLOGIE DE MONTREAL, priority 2019, dated 2022)
